Test results taken from ChEMBL document CHEMBL5120812, “Cytotoxic Nitrobenzoyl Sesquiterpenoids from an Antarctica Sponge-Derived Aspergillus insulicola” (J Nat Prod, 2022).

What was measured:
Format in all cases: functional, cell-based
PANC-1 = assay: Cytotoxicity against human PANC-1 cells assessed as inhibition of cell growth incubated for 72 hrs by SRB assay; conditions: PANC-1, 72 h
ASPC1 = assay: Cytotoxicity against human ASPC1 cells assessed as inhibition of cell growth incubated for 72 hrs by SRB assay; conditions: ASPC1, 72 h
BXPC-3 = assay: Cytotoxicity against human BXPC-3 cells assessed as inhibition of cell growth incubated for 72 hrs by SRB assay; conditions: BXPC-3, 72 h
MDA-MB-231 = assay: Cytotoxicity against human MDA-MB-231 cells assessed as inhibition of cell growth incubated for 72 hrs by SRB assay; conditions: MDA-MB-231, 72 h

Nc1ccn([C@@H]2O[C@H](CO)[C@@H](O)C2(F)F)c(=O)n1 [GEMCITABINE]
IC50 (PANC-1): 8.3 µM
IC50 (ASPC1): 7.5 µM
IC50 (BXPC-3): 0.04 µM

C[C@]1(COC(=O)CCCCCCC/C=C/C(=O)O)CCC[C@]2(C)[C@H]3COC(=O)C3=C[C@@H](OC(=O)c3ccc([N+](=O)[O-])cc3)[C@@H]12
IC50 (PANC-1): > 30 µM
IC50 (ASPC1): > 30 µM
IC50 (MDA-MB-231): > 30 µM
